Data on 1 compound can be found in patent publication US20250302798A1, “STING INHIBITORS AND USE THEREOF” (CARMEL HAIFA UNIVERSITY ECONOMIC CORPORATION LTD., priority 2022, published 2025).

Molecules are shown by their SMILES. Entries after “also recorded” stand apart in the source; their conditions may differ.

The test system of experiment [1] is STING-IFN-β axis. As to the kind of experiment: Zymosan A peritonitis in vivo, macrophage cytokines and STING pathway Western blotting. Details: species or system mice. The conditions noted are these: 50 μM compound, 100 μl/mouse. On the procedure: FIGS. 6A-6D include graphs and an image showing that compound 2.1 activates in vivo the STING-IFN-β axis and enhances biased cytokine production by macrophages. Mice were injected with zymosan A for 66 h. Twenty-four 24 post peritonitis initiation (PPI) the mice were injected with DMSO (0.4%), 4 mg/kg DMXAA or 50 μM compound 2.1 (100 μl/mouse). Macrophages were collected from the spleen (6A-6C), or peritoneum (6D) and incubated for 24 h with LPS (1 μg/ml) or vehicle (6A-6C) or lysed and analyzed by Western blotting immediately for the STING pathway (6D). Culture supernatants from incubated macrophages were analyzed by ELISA for the secretion of TNFα (6A), IL-10 (6B), and IL-6 (6C). Results are mean±SEM of 3 experiments (6A-6C) or representative blots. One-way ANOVA, and Tukey HSD test * P≤0.05, ** P≤0.01.
A general note: A western blot detects proteins with antibodies after separation by electrophoresis.

Experiment [2] deals with T1, STING (Mus musculus, UniProt Q3TBT3).
T1 sequence (Q3TBT3 1-378): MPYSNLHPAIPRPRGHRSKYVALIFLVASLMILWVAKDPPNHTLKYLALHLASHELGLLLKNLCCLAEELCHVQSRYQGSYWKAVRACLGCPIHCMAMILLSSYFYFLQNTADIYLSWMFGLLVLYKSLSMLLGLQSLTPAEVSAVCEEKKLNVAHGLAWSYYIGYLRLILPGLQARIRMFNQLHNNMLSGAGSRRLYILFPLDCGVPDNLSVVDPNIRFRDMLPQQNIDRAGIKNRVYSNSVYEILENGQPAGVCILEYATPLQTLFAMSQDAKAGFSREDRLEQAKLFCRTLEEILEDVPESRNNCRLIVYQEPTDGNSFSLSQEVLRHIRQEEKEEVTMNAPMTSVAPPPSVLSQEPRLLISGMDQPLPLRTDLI
The experiment can be described thus: Cytokine secretion (ELISA) from DMXAA-activated splenocytes. It counts as cell-based, C57BL/6 mice. The arrangement: Splenocytes were recovered from C57BL/6 WT female mice; endogenous in cells; host or cells: primary splenocytes of C57BL/6 mice. On the procedure:
FIGS. 1A-1B include bar graphs showing that Cluster 1 and 9 inhibit tumor necrosis factor alpha (TNFα) while only cluster 1 promotes IL-10 secretion from resting splenocytes activated by the selective STING agonist DMXAA. Splenocytes were recovered from C57BL/6 WT or STING^−/− female mice and were incubated (1×10^6 cells in 0.5 mL of culture media) overnight with a premade mixture of the individual compounds in each cluster (5-500 nM) or vehicle, and DMXAA (10 μM). Next, culture supernatants were collected and TNFα(1A) or IL-10 (1B) levels were determined by standard enzyme-linked immunosorbent assay ELISA (Biolegend).
FIGS. 2A-2D include graphs showing that compounds 5.9 and 7.9 inhibit TNFα and IL-10 secretion from DMXAA-activated splenocytes. Splenocytes were recovered from C57BL/6 WT female mice and incubated (1×10^6 cells in 0.5 mL of culture media) overnight with the individual compounds from cluster 9 (50-5,000 nM) or vehicle and DMXAA (5-10 μM; 2A-2B) or at 5,000 nM without DMXAA (2C-2D). Next, culture supernatants were collected and TNFα (2A, and 2C) or IL-10 (2B, and 2D) levels were determined by standard ELISA. In 2A-2B, black horizontal line indicates secretion level from vehicle-treated cells.
FIGS. 3A-3H include graphs and an image showing that compounds 2.1, 4.1, and 6.1 inhibit TNFα but promote IL-10 and IFN-beta secretion from DMXAA-activated splenocytes. Splenocytes were recovered from C57BL/6 WT female mice and incubated (1×10^6 cells in 0.5 mL of culture media) overnight with the individual compounds from cluster 1 (50-5,000 nM) or vehicle and DMXAA (10 μM; 3A, 3C, and 3E) or at 5,000 nM without DMXAA (3B, 3D, and 3F). Next, culture supernatants were collected and TNFα (3A-3B), IL-10 (3C-3D), or IFN-beta (3E-3F) levels were determined by standard ELISA. In 3A, 3C, and 3E, black horizontal line indicates secretion level from vehicle-treated cells. (3G-3H) Biased STING agonists (BiSTs) enhance DMXAA-induced STING signaling. Splenocytes were treated with 25 μg/ml DMXAA and 50 nM of compound 2.1 for 1-4 hr (3G). Then, the cells were analyzed by immunoblotting for phosphorylated STING, TBK-1, IRF3, and NF-kB, or their unphosphorylated controls, or actin as a loading control. Densitometry analysis for phosphorylated STING (p-STING) and STING proteins (3H) is also shown. Results are representative (3G) or mean±SEM (3H) from 3 repeats. One-way ANOVA, and Tukey HSD test *P<0.05.
Splenocytes were isolated from the spleens of unchallenged C57BL/6 WT or STING-KO mice by meshing against a grid. Peritoneal macrophages were isolated from mice undergoing peritonitis for 66 hr by washing with 5 ml PBS. The cellular exudate was stained with phycoerythrin (PE)-conjugated anti-F4/80 antibodies (bioLegend, CA, USA) and macrophages were isolated using magnetic beads (STEMCELL Technologies Inc, Vancouver, Canada). Isolated splenocytes or macrophages (0.5-1×10^6 cells per well) were incubated with 50-5,000 nM of individual substances or pooled clusters thereof. Then, the cells were treated with vehicle or 5-10 μM DMXAA (Cayman Chemical, MI, USA) to activate STING. After 24 hr, culture supernatants were collected and evaluated for levels of: TNFα, IFN-β and/or IL-10 using, standard ELISA (BioLegend, CA, USA).
To test which cluster(s) included compounds that modulate STING-mediated cytokine production, wild-type (WT) or STING knockout (−/−) splenocytes were incubated with the selective murine STING agonist DMXAA alone or with 5-500 nM of the pooled individual compounds in each cluster as indicated.
Next, the individual compounds in clusters 1 and 9 were tested at 50-5,000 nM. The first experiment was performed in resting splenocytes as detailed above.

[3] abbreviates: individual compounds 50-5,000 nM + DMXAA 5-10 μM, overnight.

As to `c1ccc(CSc2nnc(CCCCCCCCc3nnc(SCc4ccccc4)o3)o2)cc1` [Compound 2.1, 2-(benzylsulfanyl)-5-{8-[5-(benzylsulfanyl)-1,3,4-oxadiazol-2-yl]octyl}-1,3,4-oxadiazole], the “STING-IFN-β axis in vivo” value in experiment [1] (24 h post peritonitis initiation, peritoneal macrophages) was “activates”. For the same compound, in experiment [1] (spleen macrophages ex vivo ± LPS 1 μg/ml 24 h), the “Biased cytokine production by macrophages (TNFα, IL-10, IL-6)” value is listed as “enhances”. For the same compound, in experiment [2] (at 5,000 nM, resting splenocytes), the “STING inhibition (ranking)” value is given as “Best STING Inhibitors”. Besides, in experiment [2] (individual compounds 50-5,000 nM + DMXAA 10 μM, overnight), the IFN-beta secretion entry was “most potent inducer; also recorded: promote”. Moreover, in experiment [2] (setting [3]), the IL-10 secretion entry is “most potent inducer; also recorded: promote” and the TNFα secretion entry is on record as “doing so at lower concentrations; also recorded: inhibit”. Also, the “Mode of action on STING (overall)” value in experiment [2] (summary over various cell types, DMXAA stimulation) was “biased agonists”.
